Laboratory results as given in patent US20250290117A1, “MOLECULAR PHENOTYPIC ANTIMICROBIAL SUSCEPTIBILITY TESTING” (priority 2024, published 2025).

What was measured:
[1] = test system: P. aeruginosa; assay: Traditional culture-based antimicrobial susceptibility test; assay type: cell-based, Pseudomonas aeruginosa; settings: P. aeruginosa isolate MRSN1938
Method: Table 5 illustrates the results of an example antimicrobial agent susceptibility test of the current application versus a traditional culture-based antimicrobial agent susceptibility test for multiple specimens with different pathogens, in accordance with one or more embodiments of the disclosure. These specimens were tested with direct PCR (e.g., no extraction DNA purification step prior to PCR). As in Tables 1, 2, and 3, the results of the test of the current application are similar to the results from the traditional test.
Result Reporting to Healthcare Providers. The results from the antimicrobial exposure are reported to the ordering healthcare provider. This information can be utilized by the healthcare provider when selecting an antimicrobial regimen for their individual patient based on these individual specimen results and patient specific factors. […] The current standard of care for antimicrobial susceptibility testing involves the growth, isolation, and exposure of pathogens to antimicrobials. This traditional culture and sensitivity process can take multiple days to obtain results, limiting the ability of healthcare providers to receive timely results to make actionable changes in patient care or management. Healthcare providers desire a method to obtain antimicrobial susceptibility results with quicker turn-around-time. This application discloses a molecular-based phenotypic antimicrobial susceptibility method which involves pathogen exposure to a panel of antimicrobial agents at their specified minimum inhibitory concentration breakpoints for sensitivity. This method allows for more timely antimicrobial susceptibility results.

[2] = test system: Escherichia coli; assay: Molecular phenotypic antimicrobial susceptibility test (extraction or DNA purification prior to PCR); assay type: cell-based
Method: (§1) Detection of Molecular Phenotypic Antimicrobial Susceptibility. Disclosed herein are the methods for the detection of phenotypic antimicrobial susceptibility via molecular methods. The present invention describes how a specimen 100 with a known microbial load is incubated and then exposed to a panel of antimicrobial agents to determine sensitivity (prevention of growth) or resistance (allowance of growth) to the specific antimicrobial agents tested utilizing molecular methods.
(§2) Sample Collection. Specimens 100 are collected from patients using sterile collection processes that are employed in routine clinical care. Specimens are transported to the testing facility in boric acid preservative.
Preparation of the Specimens for Testing. […] The process for pathogen isolation includes steps of harvesting the pathogen (e.g., via centrifugation), isolating pathogen DNA via a DNA isolation and/or purification kit, and performing PCR on the pathogen DNA via PCR components (e.g., primers, enzymes, buffers) as would be known to the skilled artisan. […] This aliquot is used for antimicrobial susceptibility testing if indicated based on the pathogen detection results. […] Specimens 100 with lower pathogen loads could also be utilized in the antibiotic susceptibility phase of testing with or without a longer incubation period.
(§3) Preparation of Antimicrobial Susceptibility Testing Plates. Antimicrobial solutions are prepared at known concentrations. The specific antimicrobials and their concentrations are selected based on the pathogen of interest and the described antimicrobial resistance breakpoints for that specimen pathogen and antimicrobial combination. These antimicrobials have been selected based on those commonly utilized by healthcare providers in routine clinical care for the specific type of suspected infection. The number and types of antimicrobials utilized can be customized based on the infection source, pathogen detected, patient-specific factors such as allergies or other health conditions (e.g., chronic kidney disease or concurrent medication use), or healthcare provider preferences such as antimicrobial availability or cost.
The antimicrobial solutions are prepared in liquid culture media (such as Muller Hinton Broth) to achieve the desired antimicrobial concentration and are then stored at −80° C. until use. For a given specimen, each antimicrobial is tested at a single or multiple antimicrobial concentration(s) which is its established breakpoints for sensitivity. The antimicrobial solutions are prepared and plated out for each specific pathogen. […] This allows for evaluation of pathogen load when no antimicrobial is present.
Specimen Exposure to Antimicrobial Agents. The 1 mL aliquot of the specimen 100 previously mixed with culture media and incubated is obtained. Using optical density measurements as a guide, the specimen 100 is diluted to 0.5 McFarland.
Antimicrobial exposure plates are typically placed into an incubator for 12-16 hours.
Nucleic Acid Amplification of Antimicrobial Agent Exposed Pathogens. The antimicrobial exposure plate is removed after the period of incubation. The specimen then undergoes a purification or lysis step. For example, the specimen may undergo a purification step (e.g., magnetic bead-based or other separation protocol to isolate genetic material). In another example, the specimen may undergo a cell lysis step. For example, buffer (e.g., lysis buffer) may be added and incubated in the thermal cycler for preparation for direct PCR. Next, the specimen may undergo a polymerase chain reaction (PCR) testing protocol, whereby a semi-quantitative PCR method is utilized. This may be completed either with or without a specific extraction protocol step. The pathogens can be individually targeted and detected, or a universal genetic sequence can be utilized to detect the antimicrobial susceptibility of the specimen as a whole.

[3] = test system: Escherichia coli; assay: Traditional culture-based antimicrobial susceptibility test; assay type: cell-based
Text: Table 3 illustrates the results of an example antimicrobial agent susceptibility test of the current application versus a traditional culture-based antimicrobial agent susceptibility test for multiple Escherichia coli isolates, in accordance with one or more embodiments of the disclosure. These specimens underwent extraction or DNA purification prior to PCR. As in Tables 1 and 2, the results of the test of the current application are similar to the results from the traditional test. […]
Table 8 illustrates the results of an example antimicrobial agent susceptibility test of the current application versus a traditional culture-based antimicrobial agent susceptibility test for a low level positive with <10,000 cells/mL in the original specimen. These specimens were tested with direct PCR (e.g., no extraction DNA purification step prior to PCR) after 16 hours of incubation. As in Tables 1, 2, 3, 5, and 7, the results of the test are similar to the traditional test. […]

[4] = test system: P. aeruginosa; assay: Molecular phenotypic antimicrobial susceptibility test with direct PCR (no extraction DNA purification step); assay type: cell-based, Pseudomonas aeruginosa
Method: as §1
as §2, with “preservative. Specimens 100 are subsequently divided into a first sample 104 and a second sample 108.” for “preservative.”
Preparation of the Specimens for Testing. The specimens 100 are put through a pathogen identification process using PCR technology (e.g., using the first sample 104). The process for pathogen isolation includes steps of harvesting the pathogen (e.g., via centrifugation), isolating pathogen DNA via a DNA isolation and/or purification kit, and performing PCR on the pathogen DNA via PCR components (e.g., primers, enzymes, buffers) as would be known to the skilled artisan. Simultaneously, an additional aliquot of the same specimen (e.g., the second sample 108) is placed with liquid culture media and incubated for 4-6 hours. This aliquot is used for antimicrobial susceptibility testing if indicated based on the pathogen detection results. After pathogen identification is completed and if more than 10,000 cells/mL of bacteria (e.g., eligible bacteria) are detected in the source specimen, the second sample 108 then enters the antimicrobial susceptibility phase of testing. Specimens 100 with lower pathogen loads could also be utilized in the antibiotic susceptibility phase of testing with or without a longer incubation period.
as §3
The antimicrobial solutions are prepared in liquid culture media (such as Muller Hinton Broth) to achieve the desired antimicrobial concentration and are then stored at −80° C. until use. For a given specimen, each antimicrobial is tested at a single or multiple antimicrobial concentration(s) which is its established breakpoints for sensitivity. The antimicrobial solutions are prepared and plated out for each specific pathogen. This allows ease of use on the day of testing after defrosting the plate 112. Table 1, which illustrates the results of molecular phenotypic antimicrobial susceptibility testing when more than one organism is present in the source specimen, provides an example of an antimicrobial plate 112 prepared for this purpose. Of note, control wells containing only culture media are present on all plates 112. This allows for evaluation of pathogen load when no antimicrobial is present.
Specimen Exposure to Antimicrobial Agents. The 1 mL aliquot of the specimen 100 previously mixed with culture media and incubated is obtained. Using optical density measurements as a guide, the specimen 100 is diluted to 0.5 McFarland. […]

In the case of CC(C)(O/N=C(\C(=O)N[C@@H]1C(=O)N2C(C(=O)[O-])=C(C[n+]3ccccc3)CS[C@H]12)c1csc(N)n1)C(=O)O [Ceftazidime], the “Traditional Culture Result” value [1] was “Sensitive”, the “Ct at Sensitive Breakpoint” value ([2]; E. coli isolate 1, Ct at control (average) 21.238) was 25.605 and the “Molecular Antimicrobial Susceptibility Result” value ([2]; E. coli isolate 1, at sensitive breakpoint) was “Sensitive (Antimicrobial wells with pathogen load detected below the control wells (typically >2 cycle thresholds later) may be reported as Sensitive)”. The “Ct at Sensitive Breakpoint” value ([2]; E. coli isolate 2, Ct at control (average) 21.270) was 22.508, the “Molecular Antimicrobial Susceptibility Result” value ([2]; E. coli isolate 2, at sensitive breakpoint) was “Sensitive (Antimicrobial wells with pathogen load detected below the control wells (typically >2 cycle thresholds later) may be reported as Sensitive)” and the “Ct at Sensitive Breakpoint” value ([2]; E. coli isolate 3, Ct at control (average) 22.0995) was 22.583. For the same molecule, the “Molecular Antimicrobial Susceptibility Result” value ([2]; E. coli isolate 3, at sensitive breakpoint) was “Resistant”, the “Traditional Culture Result” value ([3]; E. coli isolate 1 (Table 3)) was “Sensitive” and the “Traditional Culture Result” value ([3]; E. coli isolate 2 (Table 3)) was “Sensitive”. The “Traditional Culture Result” value ([3]; E. coli isolate 3 (Table 3)) was “Sensitive”, the “Ct at Sensitive Breakpoint” value ([4]; P. aeruginosa isolate MRSN1938, Ct at control (average) 12.031) was 24.596 and the “Molecular Antimicrobial Susceptibility Result” value ([4]; P. aeruginosa isolate MRSN1938, at sensitive breakpoint) was “Sensitive (Antimicrobial wells with pathogen load detected below the control wells (typically >2 cycle thresholds later) may be reported as Sensitive)”.
